Laboratory results reported in US20250287955A1, “METHODS OF […] PLANT FROM INSECT PESTS” (NOVONESIS PLANT BIOSOLUTIONS A/S, priority 2018, published 2025).
Read-outs that look alike come from different tables or passages of the source.

System: 3rd instar cabbage looper
Experiment: cabbage leaf disc dip bioassay, mortality of cabbage looper
Format: in vivo
Method: An enzyme preparation, designated A, comprising an enzyme having lipase activity was diluted to 10% of the original concentration. 1 mL of the enzyme was added to 9 mL of phosphate buffered saline (PBS). The diluted enzyme was desalted using a desalting column from Sigma Aldrich. Each column having the capacity to desalt 2.5 mL of enzyme, 4 columns for the enzyme were used. Each column was equilibrated with 25 mL of PBS. 2.5 mL of sample was loaded into the column, the flow thru was discarded. 3.5 mL of PBS was added to elute the desalted enzyme. This flow thru was collected for use in the bioassay. 4.95 mL of the desalted enzyme was added to 99 mL PBS.
The chlorpyrifos insecticide (Sigma 45395) was prepared based on a stock solution of 10× (113 mg/L) using acetone. The insecticide was then diluted further using acetone to a 1:6 ratio.
Approximately 0.3 g of super absorbent granules were placed into 1.25 ounce cups and 6 mL of deionized water was added to hydrate the granules. Discs of green cabbage (2.8 cm) were cut with plastic tubing after the outer leaves had been removed. One disc was used for each individual insect. After cutting, leaf discs were rinsed in deionized water and spin dried in a small salad spinner to remove excess water.
Liquid treatments were poured into either 50 mL glass beakers for the insecticide or medium weigh boats for aqueous treatments and cabbage leaf discs were dipped in the treatment with disposable forceps, tilted to allow excess liquid to run off, and placed into cups with hydrated granules at an angle.
The cabbage leaf discs were dipped in either acetone (enzyme alone treatment) or chlorpyrifos at 18.83 mg/L of acetone. These were set to dry for 1 hr. The cabbage discs were then dipped either in phosphate buffer (chlorpyrifos alone treatments) or Enzyme A (enzyme alone or in combination with chlorpyrifos treatment), along with a 0.03% surfactant supplement.
After the cabbage discs had dried for 1 hr, a single 3rd instar cabbage looper was added to each individual cabbage disc in its cup and a paperboard lid was snapped into place. A total of 20 insects were evaluated for each treatment.
Experiment 2: This experiment was performed similar to Experiment 1, except the chemical insecticide was Clothianidin at 1:2, and the enzyme preparation, designated B, comprises an enzyme having glucosidase activity.
Experiment 3: This experiment was performed similar to Experiment 2, except the enzyme preparations, designated C and D, respectively, each comprises a different enzyme having protease activity.

| Compound | LT50 (95% confidence intervals) in days (Experiment 1, estimated time to kill 50% of the insects, Probit analysis, chlorpyrifos 18.83 mg/L, Enzyme A 0.05%, 20 insects per treatment) | mortality at 18.83 µg/mL (Trichoplusia ni, foliar, 168 h, read-out: % Mortality (7DAT), Experiment 1, Abbott's corrected, 7 days after treatment, chlorpyrifos 18.83 mg/L, Enzyme A 0.05%) [%] | LT50 (95% confidence intervals) in days (Experiment 2, Probit analysis, clothianidin 30 mg/L) | LT50 (95% confidence intervals) (Experiment 3, Probit analysis, clothianidin 30 mg/L) [days] | mortality (Trichoplusia ni, foliar, 120 h, Experiment 3, Abbott's corrected, 5 days after treatment, clothianidin 30 mg/L, read-out: % Mortality (5DAT)) [%] | mortality at 30 µg/mL (Trichoplusia ni, foliar, 144 h, Experiment 2, Abbott's corrected, 6 days after treatment, clothianidin 30 mg/L, read-out: % Mortality (6DAT)) [%] | mortality (Trichoplusia ni, foliar, 144 h, Experiment 3, Abbott's corrected, 6 days after treatment, clothianidin 30 mg/L, read-out: % Mortality (6DAT)) [%] | mortality (Trichoplusia ni, foliar, 168 h, Experiment 3, Abbott's corrected, 7 days after treatment, clothianidin 30 mg/L, read-out: % Mortality (7DAT)) [%] | mortality (Trichoplusia ni, foliar, 336 h, Experiment 3, Abbott's corrected, 14 days after treatment, clothianidin 30 mg/L, read-out: % Mortality (14DAT)) [%] | mortality (Trichoplusia ni, foliar, Experiment 3, Abbott's corrected, 8-11 days after treatment, clothianidin 30 mg/L, read-out: % Mortality (8-11DAT)) [%] | mortality (Trichoplusia ni, foliar, Experiment 3, Abbott's corrected, 12-13 days after treatment, clothianidin 30 mg/L, read-out: % Mortality (12-13DAT)) [%] |
| --- | --- | --- | --- | --- | --- | --- | --- | --- | --- | --- | --- |
| CCOP(=S)(OCC)Oc1nc(Cl)c(Cl)cc1Cl [Chlorpyrifos, chlorpyrifos] | 11.11 (9.90-12.48) days | 11 | – | – | – | – | – | – | – | – | – |
| CN/C(=N\[N+](=O)[O-])NCc1cnc(Cl)s1 [Clothianidin] | – | – | 19.37 (16.23-23.38) days | 12.34 | 15 | 0 | 20 | 30 | 45 | 40 | 45 |
